How the values were obtained:
[1] = format: in vivo, rats; details: rat, oral nimodipine 12 mg/kg
[2] = format: in vivo, rats; details: rat, i.v. nimodipine 3 mg/kg, with pravastatin 0.3 and 1 mg/kg
P-gp = P-gp (Homo sapiens, UniProt P08183); assay: Rhodamine-123 retention assay in P-gp overexpressing MCF-7/ADR cells; format: cell-based; details: 10 to 100 μM, 90 min, 20 μM rhodamine-123, MCF-7/ADR cells
human CYP3A4 = human CYP3A4 (Homo sapiens, UniProt P08684); assay: biochemical
Chain of human CYP3A4 (P08684 whole entry): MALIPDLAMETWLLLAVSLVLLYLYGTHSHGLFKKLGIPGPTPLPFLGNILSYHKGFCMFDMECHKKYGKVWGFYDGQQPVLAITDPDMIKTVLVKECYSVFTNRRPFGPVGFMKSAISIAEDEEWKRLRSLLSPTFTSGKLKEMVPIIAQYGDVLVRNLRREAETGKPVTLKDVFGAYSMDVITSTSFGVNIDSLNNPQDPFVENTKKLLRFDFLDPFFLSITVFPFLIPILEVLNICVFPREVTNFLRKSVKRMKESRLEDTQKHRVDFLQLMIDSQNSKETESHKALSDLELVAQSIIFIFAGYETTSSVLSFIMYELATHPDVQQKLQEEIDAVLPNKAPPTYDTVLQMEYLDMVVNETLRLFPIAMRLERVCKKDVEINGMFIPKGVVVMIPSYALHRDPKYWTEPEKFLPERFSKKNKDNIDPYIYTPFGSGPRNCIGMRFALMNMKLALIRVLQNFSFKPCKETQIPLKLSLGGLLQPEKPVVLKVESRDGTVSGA

Chain of P-gp (P08183 whole entry): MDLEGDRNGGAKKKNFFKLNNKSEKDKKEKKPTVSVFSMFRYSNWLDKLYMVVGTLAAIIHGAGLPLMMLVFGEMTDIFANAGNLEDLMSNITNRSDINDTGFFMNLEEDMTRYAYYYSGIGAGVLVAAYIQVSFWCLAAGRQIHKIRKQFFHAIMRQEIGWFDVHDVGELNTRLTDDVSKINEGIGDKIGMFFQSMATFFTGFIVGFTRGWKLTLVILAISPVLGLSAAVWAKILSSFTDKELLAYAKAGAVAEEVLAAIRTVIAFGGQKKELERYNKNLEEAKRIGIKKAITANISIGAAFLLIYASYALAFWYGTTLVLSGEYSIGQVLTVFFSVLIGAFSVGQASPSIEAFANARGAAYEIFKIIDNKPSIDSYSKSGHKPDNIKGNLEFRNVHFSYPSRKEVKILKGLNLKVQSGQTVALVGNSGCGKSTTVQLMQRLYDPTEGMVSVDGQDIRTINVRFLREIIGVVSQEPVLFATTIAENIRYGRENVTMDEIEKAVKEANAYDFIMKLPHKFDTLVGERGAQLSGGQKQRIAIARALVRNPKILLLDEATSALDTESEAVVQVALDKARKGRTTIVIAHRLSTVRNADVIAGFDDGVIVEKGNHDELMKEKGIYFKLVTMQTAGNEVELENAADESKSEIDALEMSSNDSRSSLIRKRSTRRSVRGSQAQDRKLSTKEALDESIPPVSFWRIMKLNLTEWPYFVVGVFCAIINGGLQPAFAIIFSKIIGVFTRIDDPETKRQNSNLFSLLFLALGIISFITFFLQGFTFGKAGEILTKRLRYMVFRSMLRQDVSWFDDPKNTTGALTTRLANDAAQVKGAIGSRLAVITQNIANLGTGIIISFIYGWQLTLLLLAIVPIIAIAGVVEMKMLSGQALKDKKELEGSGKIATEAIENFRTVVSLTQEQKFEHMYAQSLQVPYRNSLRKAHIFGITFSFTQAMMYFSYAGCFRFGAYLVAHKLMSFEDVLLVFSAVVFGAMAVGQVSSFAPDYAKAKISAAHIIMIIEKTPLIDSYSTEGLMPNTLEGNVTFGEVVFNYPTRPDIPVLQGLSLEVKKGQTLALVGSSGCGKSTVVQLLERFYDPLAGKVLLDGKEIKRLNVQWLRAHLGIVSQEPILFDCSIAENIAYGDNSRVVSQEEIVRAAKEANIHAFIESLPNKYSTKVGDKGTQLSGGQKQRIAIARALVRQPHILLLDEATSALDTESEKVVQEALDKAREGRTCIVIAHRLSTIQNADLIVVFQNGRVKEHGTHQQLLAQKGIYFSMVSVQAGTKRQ

| increase of AUC0-∞ compared with the control group ([1]; with 1 mg/kg pravastatin, P < 0.05) [%] | increase of AB compared with the oral control group ([1]; with pravastatin (1 mg/kg)) [%] | effect of concurrent pravastatin on the pharmacokinetics of i.v. nimodipine [2] | IC50 (human CYP3A4) [µM] | SMILES | effect on P-gp activity (cellular uptake of rhodamine-123) (P-gp) |
| --- | --- | --- | --- | --- | --- |
| 30.9 | 31.1 | not affected | – | COCCOC(=O)C1=C(C)NC(C)=C(C(=O)OC(C)C)C1c1cccc([N+](=O)[O-])c1 (centres unmarked) [nimodipine, Nimodipine] | – |
| – | – | – | 14 | CC[C@H](C)C(=O)O[C@H]1C[C@H](O)C=C2C=C[C@H](C)[C@H](CC[C@@H](O)C[C@@H](O)CC(=O)O)[C@H]21 [pravastatin, Pravastatin] | did not significantly inhibit P-gp activity |

Source: article PMC3480797 (Indian Journal of Pharmacology, 2012)
